Measured values as given in patent US12258344B2, “Azaaromatic amide derivatives for the treatment of cancer” (SHENZHEN FORWARD PHARMACEUTICALS CO., LTD., priority 2019, dated 2025).
pIC50: −log10 of the molar value. Read-outs that look alike come from different tables or passages of the source. Values belong to the compound of their own block, whether it stands above or below them.

Tests used:
Assay type in all cases: cell-based
BaF3 (EGFR/D770insNPG) = BaF3 (EGFR/D770insNPG) (Homo sapiens, UniProt P00533, cells depend on it, form not given); test: Test 17: EGFR exon 20 inserted D770insNPG cell proliferation test; conditions: 72 hours, Cell Titer-Glo, read-out: Test 17 IC50
Protocol: Test 17: EGFR Exon 20 Inserted D770insNPG Cell Proliferation Test
(§1) The number of viable cells in the culture was measured according to the protocol described in Promega's Cell Titer-Glo Luminescent cell Viability Assay (Promega catalog number #G7570). 90 μl of cells (3,000 cells/well) were cultured in growth medium in a Corning black transparent bottom 96-well plate, and cultured in a 5% CO2 humidified incubator at 37° C. overnight. The compound serially diluted in 100% DMSO was added to the cells using a pipette, and the cells were incubated for another 72 hours. 100 μl of the mixed Cell Titer-Glo reagent was added to the cells in the 96-well culture plate to lyse the cells and mix gently. Subsequently, the […] was detected on the Envision microplate detector to obtain the data of each compound. Finally, the data was input into a suitable software package (such as Prism) for curve fitting analysis.

BaF3 (EGFR/N771insH) = molecular target: T1, BaF3 (EGFR/N771insH) (Homo sapiens, UniProt P00533, cells depend on it, form not given); test: Test 16: EGFR exon 20 inserted N771insH cell proliferation test; conditions: BaF3 (EGFR/N771insH), 72 hours, Cell Titer-Glo, read-out: Test 16 IC50
T1 construct: Test 16 IC50 (nM); other: BaF3 (EGFR/N771insH), 72 hours, Cell Titer-Glo

BaF3 (EGFR/A763insFQEA) = BaF3 (EGFR/A763insFQEA) (Homo sapiens, UniProt P00533, INS763FQEA, cells depend on it); test: Test 14: EGFR exon 20 inserted A763insFQEA cell proliferation test; conditions: 72 hours, Cell Titer-Glo, read-out: Test 14 IC50
Protocol: Test 14: EGFR Exon 20 Inserted A763insFQEA Cell Proliferation Test
as §1

BaF3 (EGFR/V769insASV) = BaF3 (EGFR/V769insASV) (Homo sapiens, UniProt P00533, DUP767-769, cells depend on it); test: Test 15: EGFR exon 20 inserted V769insASV cell proliferation test; conditions: 72 hours, Cell Titer-Glo, read-out: Test 15 IC50
Protocol: Test 15: EGFR Exon 20 Inserted V769insASV Cell Proliferation Test
as §1, with “(3000” for “(3,000”

BaF3 (EGFR/D770insSVD) [1] = molecular target: T2, BaF3 (EGFR/D770insSVD) (Homo sapiens, UniProt P00533, DUP768-770, cells depend on it); test: Test 13: EGFR exon 20 inserted D770insSVD cell proliferation test; conditions: BaF3 (EGFR/D770insSVD), 72 hours, Cell Titer-Glo, read-out: Test 13 IC50
T2 construct: Test 13 IC50 (nM); other: BaF3 (EGFR/D770insSVD), 72 hours, Cell Titer-Glo
Summary of the method: (§2)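 BaF3 cells expressing EGFR D770insSVD, 3,000 cells/well, seeded overnight at 37° C, 5% CO2, then exposed to serially diluted compound for 72 h. Viable cells read by CellTiter-Glo luminescence; values from curve fitting.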

BaF3 (EGFR/S768I) = molecular target: T3, BaF3 (EGFR/S768I) (Homo sapiens, UniProt P00533, cells depend on it, form not given); test: Test 19: EGFR/S768I mutant cell line proliferation test; conditions: EGFR S768I and EGFR L861Q (tests 19-20), in words
T3 construct: other: EGFR S768I and EGFR L8
Protocol: Test 19: EGFR/S768I Mutant Cell Line Proliferation Test
as §1

BaF3 (HER2/G776insVC) = BaF3 (HER2/G776insVC) (Homo sapiens, UniProt P04626, cells depend on it, form not given); test: Test 23: HER2 exon 20 inserted G776insVC cell proliferation test; conditions: read-out: test 23 IC50, 72 hours, Cell Titer-Glo
Protocol: Test 23: HER2 Exon 20 Inserted G776insVC Cell Proliferation Test
as §1

BaF3 (HER2-G776insVC) = BaF3 (HER2-G776insVC) (Homo sapiens, UniProt P04626, cells depend on it, form not given); test: Test 11: BaF3 (HER2-G776insVC) cell proliferation test; conditions: 72 hours, Cell Titer-Glo, read-out: Test 11 - IC50
Protocol: Test 11: BaF3 (HER2-G776insVC) Cell Proliferation Test
(§3) The engineered cell line BaF3 (HER2-G776insVC) was constructed by the inventor himself (for the method of cell line construction, see Jingrui Jiang et al., Cancer Res. 2005 Oct. 1; 65 (19): 8964-74; Jacqulyne P. Robichaux et al., Nat Med. 2018 May; 24 (5): 638-646). BaF3 (HER2-G776insVC) was cultured in RPMI1640 medium containing 10% fetal bovine serum and 2 mM glutamine. The cells were grown at 37° C. in a humidified incubator with 5% CO2.
as §1

BaF3 (HER2/A775insYVMA) [2] = molecular target: T4, BaF3 (HER2/A775insYVMA) (Homo sapiens, UniProt P04626, cells depend on it, form not given); test: Test 21: HER2 exon 20 inserted A775insYVMA cell proliferation test; conditions: read-out: test 21 IC50; BaF3 (HER2/A775insYVMA), 72 hours, Cell Titer-Glo
T4 construct: other: BaF3 (HER2/A775insYVMA), 72 hours, Cell Titer-Glo
Protocol: (§4) Test 21: HER2 Exon 20 Inserted A775insYVMA Cell Proliferation Test
as §1

BaF3 (HER2-A775insYVMA) = BaF3 (HER2-A775insYVMA) (Homo sapiens, UniProt P04626, DUP772-775, cells depend on it); test: Test 9: BaF3 (HER2-A775insYVMA) cell proliferation test; conditions: 72 hours, Cell Titer-Glo, read-out: Test 9 - IC50
Protocol: Test 9: BaF3 (HER2-A775insYVMA) Cell Proliferation Test
BaF3 (HER2-A775insYVMA) was cultured in RPMI1640 medium containing 10% fetal bovine serum and 2 mM glutamine. The cells were grown at 37° C. in a humidified incubator with 5% CO2.
as §1

BaF3 (HER2/P780insGSP) = BaF3 (HER2/P780insGSP) (Homo sapiens, UniProt P04626, cells depend on it, form not given); test: Test 22: HER2 exon 20 inserted P780insGSP cell proliferation test; conditions: 72 hours, Cell Titer-Glo, read-out: test 22 IC50
Protocol: Test 22: HER2 Exon 20 Inserted P780insGSP Cell Proliferation Test
as §3, with “(HER2/P780insGSP)” for “(HER2-G776insVC)”, “RPMI 1640” for “RPMI1640”, “glutamine, and the” for “glutamine. The”
as §1

BaF3 (HER2-P780insGSP) = BaF3 (HER2-P780insGSP) (Homo sapiens, UniProt P04626, DUP778-780, cells depend on it); test: Test 10: BaF3 (HER2-P780insGSP) cell proliferation test; conditions: 72 hours, Cell Titer-Glo, read-out: Test 10 - IC50
Protocol: Test 10: BaF3 (HER2-P780insGSP) Cell Proliferation Test
BaF3 (HER2-P780insGSP) was cultured in RPMI1640 medium containing 10% fetal bovine serum and 2 mM glutamine. The cells were grown at 37° C. in a humidified incubator with 5% CO2.
as §1

[3] = tested on: NCI-H1975 (EGFR L858R/T790M double mutant); test: Test 1: EGFR L858R/T790M (EGFR double mutant) cell proliferation test; conditions: Homo sapiens; NCI-H1975 cells, 72 hours, Cell Titer-Glo
BaF3 (HER2/A775insYVMA) [4] = molecular target: T5, BaF3 (HER2/A775insYVMA) (Homo sapiens, UniProt P04626, cells depend on it, form not given); test: Test 21: HER2 exon 20 inserted A775insYVMA cell proliferation test; conditions: tests 21-23, in words
T5 construct: other: tests 21-23, in words; other: HER2 exon 20 insertion mutation cells, tests 21-23
Protocol: as §4, §1

BaF3 (EGFR/D770insSVD) [5] = molecular target: T6, BaF3 (EGFR/D770insSVD) (Homo sapiens, UniProt P00533, cells depend on it, form not given); test: Test 13: EGFR exon 20 inserted D770insSVD cell proliferation test; conditions: A763insFQEA, V769insASV, D770insSVD (tests 13-15), in words
T6 construct: other: A763insFQEA, V769ins
Summary of the method: as §2

Compound: C=CC(=O)Nc1cc(Nc2nccc(-c3cn(C)c4ccccc34)n2)c(OC)cc1N(C)CCN(C)C [Osimertinib (AZD9291), Osimertinib, reference compound]
GI50 (BaF3 (HER2/G776insVC)): 61.2 nM
GI50 (BaF3 (HER2-G776insVC)): 21.5 nM
GI50 (BaF3 (HER2/A775insYVMA) [2]): 32.2 nM
GI50 (BaF3 (HER2-A775insYVMA)): 61.2 nM
GI50 (BaF3 (HER2/P780insGSP)): 21.5 nM
GI50 (BaF3 (HER2-P780insGSP)): 32.2 nM

Compound: (R)—N-(5-((4-(1H-pyrrole[3,2-c]pyridin-1-yl)-1,3,5-triazin-2-yl)amino)-2-(2-((dimethylamino)methyl)azetidine-1-yl)-4-methoxyphenyl)acrylamide [Example 1]
cell activity compared with Osimertinib (AZD9291) against HER2 exon 20 insertion mutation (BaF3 (HER2/A775insYVMA) [4]): superior cell activity over Osimertinib (AZD9291)
cell activity compared with Osimertinib (AZD9291) against EGFR exon 20 insertion mutations (BaF3 (EGFR/D770insSVD) [5]): significant superior cell activity over Osimertinib (AZD9291)

Further lines, with some results ahead:

GI50 (BaF3 (EGFR/D770insNPG); hydrochloride): 4.73 nM
GI50 (BaF3 (EGFR/N771insH); hydrochloride): 10.2 nM
GI50 (BaF3 (EGFR/A763insFQEA); hydrochloride): 15.7 nM
GI50 (BaF3 (EGFR/V769insASV); hydrochloride): 26.9 nM
GI50 (BaF3 (EGFR/D770insSVD) [1]; hydrochloride): 54.5 nM
Compound: C=CC(=O)Nc1cc(Nc2nccc(-c3cn(C)c4ccccc34)n2)c(OCC(F)(F)F)nc1N(C)CCN(C)C.Cl [Compound 32, N-(2-((2-(dimethylamino)ethyl(methyl)amine)-5-((4-(1-methyl-1H-indol-3-yl)pyrimidine-2-yl)amine)-6-(2,2,2-trifluoroethoxy)pyridin-3-yl)acrylamide hydrochloride]

GI50 (BaF3 (EGFR/D770insNPG)): 5.87 nM
GI50 (BaF3 (EGFR/N771insH)): 10.1 nM
GI50 (BaF3 (EGFR/A763insFQEA)): 15 nM
GI50 (BaF3 (EGFR/V769insASV)): 25.7 nM
GI50 (BaF3 (EGFR/D770insSVD) [1]): 49.5 nM
Compound: C=CC(=O)Nc1cc(Nc2nccc(-c3cn(C)c4ccccc34)n2)c(OCC(F)(F)F)nc1N(C)CCN(C)C [Compound 33]
activity compared with Osimertinib (AZD9291) against EGFR S768I and EGFR L861Q mutations (BaF3 (EGFR/S768I)): superior activity over Osimertinib (AZD9291)

GI50 (BaF3 (EGFR/D770insNPG)): 4.58 nM
GI50 (BaF3 (EGFR/N771insH)): 9.43 nM
GI50 (BaF3 (EGFR/A763insFQEA)): 13 nM
GI50 (BaF3 (EGFR/V769insASV)): 28.4 nM
GI50 (BaF3 (EGFR/D770insSVD) [1]): 45 nM
Compound: C=CC(=O)Nc1cc(Nc2nccc(-c3cn(C)c4ccccc34)n2)c(OCC(F)(F)F)nc1N(C)CCN(C)C.CS(=O)(=O)O [Compound 31, N-(2-((2-(dimethylamino)ethyl(methyl)amine)-5-((4-(1-methyl-1H-indol-3-yl)pyrimidine-2-yl)amino)-6-(2,2,2-trifluoroethoxy)pyridin-3-yl)acrylamide methanesulfonate]
